# How the values were obtained:
# Type in all cases: physicochemical
# [1] = Solid state stress stability (storage; XRPD and stability-indicating HPLC)
# Protocol: Typically 10 μL aliquots of the sample solutions were diluted to 1 mL with acetonitrile and the assay concentrations were determined from an average of duplicate injections using the following HPLC method. The purity and impurity analyses are done using conventional HPLC.
# Crystallization studies were performed to investigate polymorphism in 48 different solvents. Solvents were selected on the basis of acceptability (ICH Class 3 and 2) and to give a range of dielectric constants, dipole moments and functional groups. Two starting materials were selected: Form A0 and Lot 7 (a mixture of Form A0, Form HC0 and Form HD0). When possible, full characterization was performed on the new forms that were generated during the polymorphism screening of Compound I. This characterization consisted of: XRPD, thermal analysis, DVS, storage at 40° C./75% RH and purity.
# Stress stability studies were performed to get a timely impression of the influence of temperature and humidity on form stability. A stability-indicating HPLC assay method was developed for quantitation of Compound I and its major degradation product, 7-methoxy-1,2,3,11-tetrahydro-5,11-diaza-benzo[a]trindene-4,6-dione, previously referred to as “Compound E”.
# [2] = Dynamic vapor sorption (DVS)
# Protocol: Gravimetric vapor sorption experiments were carried out using the DVS-HT instrument (Surface Measurement Systems, London, UK). This instrument measures the uptake and loss of vapor gravimetrically using a recording ultra-microbalance with a mass resolution of ±0.1 μg. The vapor partial pressure (±1.0%) around the sample was controlled by mixing saturated and dry carrier gas streams using electronic mass flow controllers. The desired temperature was maintained at ±0.1° C.
# The samples (10-25 mg) were placed into the DVS-HT instrument at the desired temperature. Two types of dynamic vapor sorption experiments were performed: • 1. The sample was initially dried in stream of dry air (<0.1% relative humidity (RH)) for 20 hours to establish a dry mass and exposed to two 0-90% RH cycles (in 10% RH increments). • 2. The sample was exposed at 90% RH for 20 hours and exposed to two 90-0% RH cycles (in 10% RH increments). Infrared Spectrometry (FTIR)
# [3] = Relative stability of slurries in water (XRPD of residual solid); details: for form after slurrying in water: slurried overnight in 2 ml water, all conditions investigated; for Forms Found (XRPD of residual solid): water
# Protocol: Two ml of water was added to a few milligrams of Compound I forms. The samples were slurried overnight. A small sample of solid was removed and analyzed by XRPD. […] The hydrate form appears to be more thermodynamically stable than Form A0 between 5 and 45° C.
# [4] = Well plate crystallization with added water (forms found)
# Protocol: B. Plates containing 10 volumes of Compound I (40 mg of Lot 7 in 400 μL) were heated from 20° C. to an initial temperature of 80° C. at a rate of 4.8° C./min and after 30 minutes, cooled at a slow (0.28° C./min), or fast (10° C./min) rate to a final temperature of 5° C. and kept at that temperature for 18 hours. The crystallization experiments were carried out in glass vial (4 mL) well plates, and solid material was isolated by filtration. The solid was dried at 57° C. for 10 hours.
# [5] = Mechanical stress: grinding by mortar and pestle, milling by Wig-L-Bug
# Protocol: Approximately 100 mg of Compound I was ground at different times ranging from 5 to 27 min in an agate mortar. Samples were removed for XRPD and thermal analysis. The grinding process was stopped every 5 minutes to scrape and remix powder cakes at the curvature end of the jars to ensure homogenous grinding.
# A Wig-l-Bug® (Piketech, USA) was used to grind Compound I Form A0, HA0 and HB0 (mixture of Forms HC0 and HD0). Each sample (50 mg) was ground for periods of 5 and 10 minutes or until no change was observed. Each milling was carried out in a 2.82 cm^3 container using 0.9 g stainless steel ball ([…]). The vial is swung through a 6.5° arc at 3200 rpm, causing the ball to strike the end of the vial at over 100 Hz.
# [6] = Variable temperature X-ray powder diffraction (VT-XRPD)
# Protocol: Variable temperature studies were performed under a nitrogen atmosphere with an Anton Paar TTK450 temperature chamber under computer control through an Anton Paar TCU100 temperature control unit. Two measurement schemes were used, restricted and continuous. In the restricted mode, measurements were made, only after the TK450 chamber reached the requested temperature. In the continuous mode, the sample was heated at 10° C./minute and fast scans were measured as the temperature changed. After the requested temperature was reached, the sample was cooled at 30 or 35° C./minute and a slower scan measured 25° C.
# [7] = Regular DVS (0 to 90% RH), listed as HC0
# [8] = Irregular DVS (90 to 0% RH), listed as A0
# [9] = Regular DVS (0 to 90% RH), listed as A0
smiles,measurement,setting,value
"COc1cccc2[nH]c3c4c(c5c(c3c12)C(=O)N(CN1CCN(C)CC1)C5=O)CCC4 [Form HC0, 4,5,6,7-tetrahydro-11-methoxy-2-[(4-methyl-1-piperazinyl)methyl]-1H-cyclopenta[a]pyrrolo[3,4-c]carbazole-1,3(2H)-dione]",Chemical Stability (HPLC (post 4 weeks at 40° C./75% RH (Area %))),[1]; 40° C./75% RH,99.0 Area %
same,HPLC % Compound I,"[1]; 40° C./75% RH, 0 days","92.6% Compound I,"
same,XRPD (form found),"[1]; 40° C./75% RH, 0 days",HC0
same,HPLC % Compound I,"[1]; 40° C./75% RH, 28 days","93.3% Compound I,"
same,HPLC % others,"[1]; 40° C./75% RH, 28 days",0.2% others
same,XRPD (form found),"[1]; 40° C./75% RH, 28 days",HC0
same,DVS % increase in mass at 90% RH,[2],0.44%
same,At 75% RH uptake,[2]; Irregular DVS (90 to 0% RH),0.3%
same,Total uptake at 90% RH,[2]; Irregular DVS (90 to 0% RH),0.4%
same,changes by XRPD re-analysis after DVS,[2]; Irregular DVS (90 to 0% RH),No significant changes
same,Total uptake at 90% RH,[2]; Regular DVS (0 to 90% RH),0.4%
same,changes by XRPD re-analysis after DVS,[2]; Regular DVS (0 to 90% RH),No significant changes
same,At 75% RH uptake,[2]; [7],0.3%
same,Total uptake at 90% RH,[2]; [7],0.4%
"COc1cccc2[nH]c3c4c(c5c(c3c12)C(=O)N(CN1CCN(C)CC1)C5=O)CCC4 [Form HA0, 4,5,6,7-tetrahydro-11-methoxy-2-[(4-methyl-1-piperazinyl)methyl]-1H-cyclopenta[a]pyrrolo[3,4-c]carbazole-1,3(2H)-dione]",Chemical Stability (HPLC (post 4 weeks at 40° C./75% RH (Area %))),[1]; 40° C./75% RH,99.0 Area %
same,HPLC % Compound I,"[1]; 40° C./75% RH, 0 days","99.6% Compound I,"
same,XRPD (form found),"[1]; 40° C./75% RH, 0 days",HA0
same,HPLC % Compound I,"[1]; 40° C./75% RH, 7 days","99.5% Compound I,"
same,XRPD (form found),"[1]; 40° C./75% RH, 7 days",HA0
same,HPLC % Compound I,"[1]; 40° C./75% RH, 26 days","99.0% Compound I,"
same,XRPD (form found),"[1]; 40° C./75% RH, 26 days",HA0
same,XRPD post DVS analysis,[2],No significant changes
same,DVS % increase in mass at 90% RH,[2],1.5%
same,weight decrease in DVS isotherm,[2]; between 20-30% RH,1.25%
same,second change in mass,[2]; second desorption phase,~0.4%
same,form after slurrying in water,[3],converted to the hydrate forms (mixture of Forms HC0 and HD0)
same,form produced on crystallization from aqueous media,[4],a mixture of Forms HC0+HD0 is produced
same,Forms Found,"[4]; solvent not given, 0.175 volumes of water","HC0, HD0"
COc1cccc2[nH]c3c4c(c5c(c3c12)C(=O)N(CN1CCN(C)CC1)C5=O)CCC4 [Form HB0],factor of reduction in intensity of XRPD peak at 7.6° (2θ),[5]; three five-minute grinding intervals,approximately 30
COc1cccc2[nH]c3c4c(c5c(c3c12)C(=O)N(CN1CCN(C)CC1)C5=O)CCC4 [Form S40],HPLC % Compound I,"[1]; 40° C./75% RH, 9 days","99.4% Compound I,"
same,XRPD (form found),"[1]; 40° C./75% RH, 9 days",transformed into monohydrate Form HC0
same,XRPD (form found),"[1]; 40° C./75% RH, 9 days, listed as S40",HC0
same,HPLC % Compound I,"[1]; 40° C./75% RH, 17 days","99.4% Compound I,"
same,XRPD (form found),"[1]; 40° C./75% RH, 17 days",HC0
same,HPLC % Compound I,"[1]; 40° C./75% RH, 31 days","99.4% Compound I,"
same,XRPD (form found),"[1]; 40° C./75% RH, 31 days",HC0
same,HPLC % Compound I,"[1]; 40° C./75% RH, 62 days","99.2% Compound I,"
same,XRPD (form found),"[1]; 40° C./75% RH, 62 days",remained in this state
same,XRPD (form found),"[1]; 40° C./75% RH, 62 days, listed as S40",HC0
"COc1cccc2[nH]c3c4c(c5c(c3c12)C(=O)N(CN1CCN(C)CC1)C5=O)CCC4 [Form B0, 4,5,6,7-tetrahydro-11-methoxy-2-[(4-methyl-1-piperazinyl)methyl]-1H-cyclopenta[a]pyrrolo[3,4-c]carbazole-1,3(2H)-dione]",solid-solid transformation (VT-XRPD),"[6]; 150° C. to 200° C., after the dehydration",no solid-solid transformation takes place
"COc1cccc2[nH]c3c4c(c5c(c3c12)C(=O)N(CN1CCN(C)CC1)C5=O)CCC4 [Form A0, 4,5,6,7-tetrahydro-11-methoxy-2-[(4-methyl-1-piperazinyl)methyl]-1H-cyclopenta[a]pyrrolo[3,4-c]carbazole-1,3(2H)-dione]",Chemical Stability (HPLC (post 4 weeks at 40° C./75% RH (Area %))),[1]; 40° C./75% RH,99.0 Area %
same,forms arising on storage (water uptake),"[1]; 40° C. and 75% RH, after 3 months",hydrate Forms HC0 and HD0
same,HPLC % Compound I,"[1]; 40° C./75% RH, 5 days","99.2% Compound I,"
same,HPLC % Compound I,"[1]; 40° C./75% RH, 16 days","99.2% Compound I,"
same,HPLC % Compound I,"[1]; 40° C./75% RH, 29 days","99.2% Compound I,"
same,HPLC % Compound I,"[1]; 40° C./75% RH, 141 days","99.0% Compound I,"
same,XRPD (form found),"[1]; 40° C./75% RH, 141 days","A0, HC0, HD0"
same,HPLC % Compound I,"[1]; 60° C./0% RH, 7 days","99.3% Compound I,"
same,HPLC % Compound I,"[1]; 60° C./0% RH, 14 days","99.1% Compound I,"
same,HPLC % Compound I,"[1]; 60° C./0% RH, 28 days","99.1% Compound I,"
same,HPLC % Compound I,"[1]; 110° C., 7 days","98.7% Compound I,"
same,HPLC % Compound I,"[1]; 110° C., 14 days","95.6% Compound I,"
same,HPLC % Compound I,"[1]; 110° C., 28 days","93.4% Compound I,"
same,DVS % increase in mass at 90% RH,[2],0.1%
same,Total uptake at 90% RH,[2]; Irregular DVS (90 to 0% RH),0.5%
same,changes by XRPD re-analysis after DVS,[2]; Irregular DVS (90 to 0% RH),No significant changes
same,total increase in mass (reversible isotherm),[2]; Irregular DVS (90 to 0% RH),< 0.6%
same,At 75% RH uptake,[2]; [8],0.15%
same,Total uptake at 90% RH,[2]; [8],0.5%
same,At 75% RH uptake,[2]; Regular DVS (0 to 90% RH),less than 0.08%
same,Total uptake at 90% RH,[2]; Regular DVS (0 to 90% RH),approximately 0.1%
same,changes by XRPD re-analysis after DVS,[2]; Regular DVS (0 to 90% RH),No significant changes
same,hygroscopicity,"[2]; Regular DVS (0 to 90% RH), adsorption and desorption curves overlap",not hygroscopic
same,At 75% RH uptake,[2]; [9],0.08%
same,Total uptake at 90% RH,[2]; [9],0.1%
same,form after slurrying in water,[3],converted to the hydrate forms (mixture of Forms HC0 and HD0)
same,Forms Found (XRPD of residual solid),"[3]; 5° C., 1 day","HC0, HD0"
same,Forms Found (XRPD of residual solid),"[3]; 5° C., 4 days","HC0, HD0"
same,Forms Found (XRPD of residual solid),"[3]; 45° C., 1 day","HA0, HC0"
same,form produced on crystallization from aqueous media,[4],a mixture of Forms HC0+HD0 is produced
same,Forms Found,"[4]; methyl acetate, 0.175 volumes of water","HC0, HD0"
same,Forms Found,"[4]; methyl acetate, 0.25 volumes of water","HC0, HD0"
same,Forms Found,"[4]; methyl acetate, 1 volume of water","HC0, HD0"
same,Forms Found,"[4]; methyl acetate, 1.5 volumes of water","HC0, HD0"
same,XRPD crystallinity after milling,"[5]; five minutes, Wig-l-Bug",crystallinity had been significantly reduced
same,XRPD crystallinity after grinding,"[5]; twenty minutes, mortar and pestle",crystallinity had been significantly reduced
same,solid-solid transformation (VT-XRPD),[6]; 20° C. to 250° C.,No solid-solid transformation takes place
same,change in XRPD pattern after heating,"[6]; heated to 220° C., then exposure to ambient conditions",no significant change
"COc1cccc2[nH]c3c4c(c5c(c3c12)C(=O)N(CN1CCN(C)CC1)C5=O)CCC4 [Compound I, 4,5,6,7-tetrahydro-11-methoxy-2-[(4-methyl-1-piperazinyl)methyl]-1H-cyclopenta[a]pyrrolo[3,4-c]carbazole-1,3(2H)-dione]",chemical degradation,[1]; 40° C. and 75% RH,not observed
same,chemical degradation,[1]; exposed to 110° C.,observed

# — patent US8633314B2, “Forms of a multicyclic compound” (Cephalon, Inc., priority 2009, dated 2014)
